Source: ChEMBL document CHEMBL1201862, “PubChem BioAssay data set” (2004)
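Dose response: 5 concentrations. Exposure: 48 h. Format: 96-well plates. Endpoint: linear interpolation; highest concentration if not reached. The concentration for 50% growth inhibition is given as GI50.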 Calls of active or inactive are those of the source. No stated cut-off is given here; in the data, active = GI50 up to about 1.1 µM and inactive = higher.

Tests used:
Assay in all cases: NCI-60 cell line screen, 48 h
786-0 = test system: 786-0
A549 = test system: A549
ACHN = test system: ACHN
BT-549 = test system: BT-549
CAKI-1 = test system: CAKI-1
CCRF-CEM = test system: CCRF-CEM
COLO 205 = test system: COLO 205
DU-145 = test system: DU-145
EKVX = test system: EKVX
HCC 2998 = test system: HCC 2998
HCT-116 = test system: HCT-116
HCT-15 = test system: HCT-15
HL-60 = test system: HL-60
HOP-92 = test system: HOP-92
HT-29 = test system: HT-29
Hs-578T = test system: Hs-578T
IGROV-1 = test system: IGROV-1
K562 = test system: K562
KM12 = test system: KM12
LOX IMVI = test system: LOX IMVI
M14 = test system: M14
MCF7 = test system: MCF7
MDA-MB-231 = test system: MDA-MB-231
MDA-MB-435 = test system: MDA-MB-435
MDA-N = test system: MDA-N
MOLT-4 = test system: MOLT-4
Malme-3M = test system: Malme-3M
NCI-H226 = test system: NCI-H226
NCI-H23 = test system: NCI-H23
NCI-H460 = test system: NCI-H460
NCI-H522 = test system: NCI-H522
NCI/ADR-RES = test system: NCI/ADR-RES
OVCAR-3 = test system: OVCAR-3
OVCAR-4 = test system: OVCAR-4
OVCAR-5 = test system: OVCAR-5
OVCAR-8 = test system: OVCAR-8
PC-3 = test system: PC-3
RPMI-8226 = test system: RPMI-8226
SF-268 = test system: SF-268
SF-295 = test system: SF-295
SF-539 = test system: SF-539
SK-MEL-28 = test system: SK-MEL-28
SK-MEL-2 = test system: SK-MEL-2
SK-MEL-5 = test system: SK-MEL-5
SK-OV-3 = test system: SK-OV-3
SN12C = test system: SN12C
SNB-19 = test system: SNB-19
SNB-75 = test system: SNB-75
SW-620 = test system: SW-620
T47D = test system: T47D
U-251 = test system: U-251
UACC-257 = test system: UACC-257
UACC-62 = test system: UACC-62
UO-31 = test system: UO-31

Measured: GI50

C=C1C(=O)OC2C1CC(OC(C)=O)/C(C)=C/CCC1(C)OC21 (centres undefined)
inactive: 786-0 > 100 µM | A549 > 100 µM | ACHN > 100 µM | BT-549 > 100 µM | CAKI-1 > 100 µM | CCRF-CEM > 100 µM | COLO 205 > 100 µM | DU-145 > 100 µM | EKVX > 100 µM | HCC 2998 > 100 µM | HCT-116 > 100 µM | HL-60 > 100 µM | HOP-92 > 100 µM | HT-29 > 100 µM | Hs-578T > 100 µM | IGROV-1 > 100 µM | K562 > 100 µM | KM12 > 100 µM | LOX IMVI > 100 µM | M14 > 100 µM | MCF7 > 100 µM | MDA-MB-231 > 100 µM | MDA-MB-435 > 100 µM | MDA-N > 100 µM | MOLT-4 > 100 µM | Malme-3M > 100 µM | NCI-H226 > 100 µM | NCI-H23 > 100 µM | NCI-H460 > 100 µM | NCI-H522 > 100 µM | NCI/ADR-RES > 100 µM | OVCAR-3 > 100 µM | OVCAR-4 > 100 µM | OVCAR-5 > 100 µM | OVCAR-8 > 100 µM | PC-3 > 100 µM | RPMI-8226 > 100 µM | SF-268 > 100 µM | SF-295 > 100 µM | SF-539 > 100 µM | SK-MEL-28 > 100 µM | SK-MEL-2 > 100 µM | SK-MEL-5 > 100 µM | SK-OV-3 > 100 µM | SN12C > 100 µM | SNB-19 > 100 µM | SNB-75 > 100 µM | SW-620 > 100 µM | T47D > 100 µM | U-251 > 100 µM | UACC-257 > 100 µM | UACC-62 > 100 µM | UO-31 > 100 µM
> 100 µM: HCT-15
